From US11981944B2, “Immunogenic arginase peptides” (IO Biotech ApS, priority 2016, dated 2024)

Tests used:
[1] = test system: PBMCs from healthy donors or cancer patients; assay: IFNγ ELISPOT on PBMCs after one week peptide and IL-2 stimulation (Example 2); type: cell-based, human; settings: for spontaneous IFNγ ELISPOT responses against 20-mer library peptides: cancer (melanoma) patient PBMCs, FIG. 9A
Description: PBMCs from healthy donors or cancer patients were stimulated with 80 μg of arginase-derived peptides and 120 U/ml IL-2 (Peprotech, London, UK, cat. 200-02) for a week. 4-6×10^5 PBMCs were then placed in the bottom of ELISPOT plate (nitrocellulose bottomed 96-well plates by MultiScreen MAIP […]; Millipore, cat. MSIPN4W50) pre-coated with IFN-y capture Ab (Mabtech, cat. 3420-3-1000) and 1-10 μg of arginase derived peptides were added. PBMCs from each patient and donors were set up in duplicates or triplicates for peptide and control stimulations. Cells were incubated in ELISPOT plates in the presence of an antigen for 14-16 hours after which they are washed off and secondary biotinylated Ab (Mabtech, cat. 3420-6-1000) was added. After 2 h incubation unbound secondary antibody was washed off and streptavidin conjugated alkaline phosphatase (AP) (Mabtech, cat. 3310-10) was added for 1 h. Next, unbound conjugated enzyme is washed off and the assay is developed by adding BCIP/NBT substrate (Mabtech, cat. 3650-10). Developed ELISPOT plates were analysed on CTL ImmunoSpot S6 Ultimate-V analyzer using Immunospot software v5.1. Responses were calculated as the difference between average numbers of spots in wells stimulated with Arginase-1 peptides and control wells. We divided the entire arginase-1 protein sequence into overlapping 20-amino-acid-long peptides, generating a library of 31 peptides covering the whole sequence (SEQ ID NOs 18-48)). Each peptide in the library overlapped with the first 10 amino acids of the following peptide. Using this arginase peptide library and the IFNγ ELISPOT assay, we next screened PBMCs from melanoma patients and healthy donors for spontaneous responses (FIGS. 9A and 9B). The PBMCs were stimulated for one week with a pool of 3-4 adjacent 20-mer arginase library peptides and low-dose IL-2 (120 U/mL). They were then set up for an IFNγ ELISPOT assay to screen for responses against each 20-mer peptide separately. […] Among these overlapping peptides, […]-200), and Arg(191-210) spanned a 50-amino-acid-long region that was deemed a hot-spot region since nearly all patients harbored a response against one or more of these peptides (FIG. 9A). The selected eight peptides were further used to screen for spontaneous immune responses against arginase-1 in PBMCs from eight healthy donors using IFNγ ELISPOT. […] Since we most frequently observed responses against arginase-1 peptides from the hot-spot region, we next analyzed whether longer peptides covering the same sequence could be used instead of four 20-mers. […] We then divided the arginase-1 hot-spot region into two 30-mer peptides that overlapped by 10 amino acids (peptides labelled by reference to start and end position): […]-190) and […]-210). These 30-mer peptides were used to check for responses in selected PBMCs from cancer patients and healthy donors, which had previously shown responses against the 20-mer hot-spot peptides. The PBMCs were stimulated for one week with either […]-190) or […]-210) in the presence of IL-2, and were then used in IFNγ ELISPOT.

[2] = test system: arginase-specific CD4+ T-cell culture; assay: Recognition by arginase-specific CD4+ T-cell culture (ArgShort-stimulated); type: cell-based, human; settings: IFNγ ELISPOT and intracellular staining; FIG. 11C
Description: PBMCs from healthy donors or cancer patients were stimulated with 80 μg of arginase-derived peptides and 120 U/ml IL-2 (Peprotech, London, UK, cat. 200-02) for a week. 4-6×10^5 PBMCs were then placed in the bottom of ELISPOT plate (nitrocellulose bottomed 96-well plates by MultiScreen MAIP N45; Millipore, cat. MSIPN4W50) pre-coated with IFN-y capture Ab (Mabtech, cat. 3420-3-1000) and 1-10 μg of arginase derived peptides were added. PBMCs from each patient and donors were set up in duplicates or triplicates for peptide and control stimulations. Cells were incubated in ELISPOT plates in the presence of an antigen for 14-16 hours after which they are washed off and secondary biotinylated Ab (Mabtech, cat. 3420-6-1000) was added. After 2 h incubation unbound secondary antibody was washed off and streptavidin conjugated alkaline phosphatase (AP) (Mabtech, cat. 3310-10) was added for 1 h. Next, unbound conjugated enzyme is washed off and the assay is developed by adding BCIP/NBT substrate (Mabtech, cat. 3650-10). Developed ELISPOT plates were analysed on CTL ImmunoSpot S6 Ultimate-V analyzer using Immunospot software v5.1. Responses were calculated as the difference between average numbers of spots in wells stimulated with Arginase-1 peptides and control wells.
Arginase-specific T cell culture were established by stimulation of cancer patient PBMC with irradiated ArgShort (SEQ ID NO 9) peptide-loaded autologous DC or PBMCs. The following day IL-7 and IL-12 (PeproTech, London, UK, cat. 200-07-10 and 200-12) were added. Stimulation of the cultures were carried out every 8 days with ArgShort peptide loaded irradiated autologous DC followed by ArgShort peptide-loaded irradiated autologous PBMC. The day after peptide stimulation IL-2 […]. After 5 stimulations arginase-specific T cells were enriched using TNF-α cell enrichment kit (MiltenyiBiotec, cat. 130-091-269).
Flow cytometry analysis was performed on a FACSCanto™ II (BD Biosciences, San Jose CA, USA). […]

C57BL/6 and Balb/c mice = assay: Peptide vaccination of mice and IFNgamma ELISPOT of spleen or dLN cells; type: in vivo, mouse; settings: 100 μg peptide s.c. day0 and day7
Description: Animals were vaccinated subcutaneously with 100 μg peptide in DMSO/H2O in a 1:1 emulsion with incomplete Freund's adjuvant (IFA) or montanide. IFA+DMSO/H2O served as a control vaccine. Vaccinations were carried out on day0 and day7. For subsequent analysis of the immune response to specific peptides, mice were sacrificed on day 14 and spleen and draining lymph nodes (dLNs) were harvested.
Murine immune cells were subjected to ELISPOT analysis. Single cell suspension was prepared from spleen or dLNs by passage through a cell strainer. After lysis of red blood cells, 0.9×10E6 cells/well were seeded into ELISPOT plates coated with anti-IFNgamma antibody. Peptide of interest was added to designated wells and cells were incubated o/n with peptide. The next day, cells were removed, plates washed and incubated with biotinylated detection antibody. Finally, after addition of Streptavidin-ALP and substrate visible spots appear. Each spot corresponds to an individual IFNgamma producing cell. Plates were analysed in an Immunospot analyser and plotted as spots/0.9×10E6 cells minus background (i.e. minus number of spots in corresponding unstimulated (no peptide) wells).

[3] = test system: CT26.WT colon cancer cells; assay: Tumor vaccination of Balb/c mice bearing CT26.WT tumors; type: in vivo, mouse; settings: for tumor growth relative to vaccination with control peptide: vaccination day6 and day 13, FIG. 16
[4] = test system: TILs from eight melanoma patients; assay: Intracellular staining for IFNγ and TNFα release in melanoma TILs; type: cell-based, human; settings: for IFNγ or TNFα release from CD8+ T cells: TILs; for IFNγ or TNFα release from CD8+ T cells / IFNγ release from CD4+ T cells: 5 h peptide stimulation; for IFNγ release from CD4+ T cells: one of the TIL cultures, FIG. 10A
Description: Flow cytometry analysis was performed on a FACSCantoTM II (BD Biosciences, San Jose CA, USA). Intracellular staining of cell cultures was performed after the cells were stimulated with 20-mere peptides for 5 hours or 30-mere peptides for 8h (BD GolgiPlugTM cat. 555029, was added after the first hour). The cells were then stained for surface markers, then washed and permeabilized by using Fixation/Permeabilization and Permeabilization Buffer (eBioscience, cat. 00-5123-43), according to manufacturer's instructions. Antibodies used: IFNγ-APC (cat. 341117), TNFα-BV421 (cat. 562783), CD4-FITC (cat. 347413), CD8-PerCP (cat. 345774) (all from BD Biosciences). Dead cells were stained using FVS510 (564406, BD Biosciences) according to manufacturer's instructions. To investigate the potential presence of arginase-specific T cells among tumor-infiltrating lymphocytes in cancer, we screened TILs from eight melanoma patients for responses against arginase-1 derived peptides. To this end, we performed intracellular staining for IFNγ and TNFα release in response to peptide stimulation. TILs were thawed and rested overnight without IL-2, and then stimulated for 5 h with three hot-spot immunogenic region 20-mer peptides (peptides labelled by reference to start and end position): […]-200). […] The percentage of IFNγ-producing cells was higher for […]-190) and […]-200) compared to […]-180), and the response against […]-200) was almost twice that against […]-180).

[5] = test system: peripheral blood mononuclear cells (PBMC); assay: IFN-gamma ELISPOT secretion assay on PBMC (Example 1); type: cell-based, human; settings: for immune responses against overlapping 20mer peptides: PBMC from three cancer patients, FIG. 3
[6] = test system: T2-cells loaded with peptide; assay: 51Cr-release assay for CTL-mediated cytotoxicity; type: cell-based, human; settings: standard chromium release assay; FIG. 5
Description: Conventional ^51Cr-release assays for CTL-mediated cytotoxicity were carried out as described elsewhere. Target cells were T2-cells (ATCC), HLA-A2^+ melanoma cell lines (FM3 and FM93)
In this experiment Arginase specific T cells were incubated 4 h with either Cr-labeled melanoma cell lines FM3 or FM93 at different effector:target ratios. Both cell lines express intracellular Arginase.

[7] = CD4+ T cells in TILs, 5 h stimulation

GFSWVTPCISAKDIVYIGLRDVDPGEHYILKTLGIKYFSMTEVDRLGIGK (Peptide fragment of human Arginase 1) [50-mer peptide, 50-mer covering the entire hot-spot region, positions 161-210 of human Arginase 1]
IFNγ ELISPOT responses against longer hot-spot peptides ([1]; selected PBMCs from cancer patients and healthy donors, one week stimulation with IL-2, FIG. 10B, 10C): lower responses compared to the 20-mer peptides
recognition by T-cell culture specific against the minimal arginase epitope [2]: not recognized

GFSWVTPCISAKDIVYIGLR (Peptide fragment of human Arginase 1) [Arg1-17, positions 161-180 of human Arginase 1; murine region identical]
spontaneous IFNγ ELISPOT responses against 20-mer library peptides [1]: highest and most abundant responses
immunogenicity (peptide specific IFNgamma ELISPOT response) (C57BL/6 and Balb/c mice; Balb/c mice, FIG. 15): immunogenic
immunogenicity (peptide specific IFNgamma ELISPOT response) (C57BL/6 and Balb/c mice; C57BL/6 mice, FIG. 14): immunogenic
tumor growth relative to vaccination with control peptide [3]: inhibit tumor growth
IFNγ or TNFα release from CD8+ T cells [4]: No IFNγ or TNFα release was observed
IFNγ release from CD4+ T cells [4]: IFNγ was released from CD4+ T cells
immune responses against overlapping 20mer peptides [5]: Frequent immune responses were detected

IVYIGLRDV (Peptide fragment of human Arginase 1) [Arg8, positions 174-182 of human Arginase 1]
killing of peptide-loaded target cells by CD8 positive culture [6]: can kill target cells loaded with Arg8
specific T-cell responses against Arg-derived peptide ([5]; IFN-gamma ELISPOT, PBMC from six melanoma patients, FIG. 1): Strong responses
Immune responses against Arg 8 peptide ([5]; PBMC from 6 cancer patients, specific cells/3×10e5 cells, FIG. 2): Very strong responses were frequently detected

LGIKYFSM (Peptide fragment of human Arginase 1) [mARG2, positions 193-200 of human Arginase 1; murine region identical]
immunogenicity (peptide specific IFNgamma ELISPOT response) (C57BL/6 and Balb/c mice; Balb/c mice, FIG. 15): not immunogenic
immunogenicity (peptide specific IFNgamma ELISPOT response) (C57BL/6 and Balb/c mice; C57BL/6 mice, FIG. 14): not immunogenic

KTLGIKYFSMTEVDKLGIGK (Peptide fragment of murine Arginase 1) [mARG20, positions 191-210 of murine Arginase 1]
immunogenicity (peptide specific IFNgamma ELISPOT response) (C57BL/6 and Balb/c mice; Balb/c mice, FIG. 15): immunogenic
immunogenicity (peptide specific IFNgamma ELISPOT response) (C57BL/6 and Balb/c mice; C57BL/6 mice, FIG. 14): immunogenic
size of the tumor growth effect among the tested peptides [3]: most noticeable
tumor growth relative to vaccination with control peptide [3]: inhibit tumor growth

DVDPGEHYILKTLGIKYFSM (Peptide frgment of human Arginase 1) [Arg1-19, positions 181-200 of human Arginase 1]
spontaneous IFNγ ELISPOT responses against 20-mer library peptides [1]: highest and most abundant responses
immunogenicity (peptide specific IFNgamma ELISPOT response) (C57BL/6 and Balb/c mice; Balb/c mice, FIG. 15): immunogenic
immunogenicity (peptide specific IFNgamma ELISPOT response) (C57BL/6 and Balb/c mice; C57BL/6 mice, FIG. 14): immunogenic
size of the tumor growth effect among the tested peptides [3]: most noticeable
tumor growth relative to vaccination with control peptide [3]: inhibit tumor growth
percentage of IFNγ-producing cells compared to Arg(161-180) [4, 7]: higher
response relative to that against Arg(161-180) [4, 7]: almost twice that against Arg(161-180)
IFNγ or TNFα release from CD8+ T cells [4]: No IFNγ or TNFα release was observed
IFNγ release from CD4+ T cells [4]: IFNγ was released from CD4+ T cells
immune responses against overlapping 20mer peptides [5]: Frequent immune responses were detected

KDIVYIGL (Peptide fragment of human Arginase 1) [mARG1, positions 172-179 of human Arginase 1; murine region identical]
immunogenicity (peptide specific IFNgamma ELISPOT response) (C57BL/6 and Balb/c mice; C57BL/6 mice, FIG. 14): immunogenic
